# Columns and labels:
# [1] = Ability to trap the DPPH radical; settings: 5 μg/mL
# Method: PRINCIPLE: This method is based on the reduction of an alcoholic solution of the stable form of the DPPH. radical in the presence of an antioxidant donor of hydrogen (AH), which leads to the formation of a non-radical form DPPH-H. This reduction causes a color change from violet to yellow which could be studied at 517 nm. The faster the color change occurs, the more the donor is considered as a strong antioxidant. PROTOCOL: 50 μL of different concentrations of each extract was added to 1.950 mL of freshly prepared methanolic DPPH. […] After incubation for 30 minutes in the dark and at room temperature, the absorbance was read at 517 nm. Methanol was used as control and ascorbic acid was used as standard. The ability to trap DPPH^· was expressed in percentage inhibition as calculated using the following equation: [formula] The inhibitory concentrations 50 (IC50) were later determined by extrapolating after drawing curves of percentage inhibition against concentration. All samples were analyzed in triplicates. I.4.3. Evaluation of DPPH^· Anti-Radical Activity of Rough Extract Fractions This activity was evaluated using the protocol of Sanchez-Moreno et al. (1998) as described earlier.
# [2] = test system: Aluminum chloride induced neurotoxicity in Wistar rats; assay: Aluminum chloride treated rats: plasma creatinine, renal toxicity; type: in vivo
# Method: (§1) [formula] I.3. Evaluation of Neuro-Protective Effects of the Hydro-Ethanolic Extract of B. toxisperma Against Aluminum Chloride Induced Neurotoxicity (Animal Model of Neurotoxicity)
# (§2) Twenty albinos Wistar rats weighing between 230-250 g were used for this experiment in which the treatment lasted 3 days. The experimentation was conducted in the animal house of the Laboratory of Nutrition and Nutritional Biochemistry of the department of Biochemistry (Faculty of Science, University of Yaounde I). Animals were fed with standard feed and drinking water ad libitum.
# (§3) Rats were divided into 5 groups of 4 rats each. A unique dose of 32.5 mg/kg BW of aluminum trichloride (AlCl3) was administered by intra peritoneal (i.p) route. 24 hours later, different doses of plant extract and vitamin E (reference) were administered by oral route, using a gastro-oesophagian probe once a day for 3 days.
# 24 hours after the last administration, animals were sacrificed under mild anesthesia in Ether vapor following a 12 hours fasting. […]
# PROTOCOL: 1 mL of working solution (annex 3f) was placed into test tubes and 0.1 mL of plasma and caliber added respectively to assay and blank tubes. Tubes were agitated and their optical densities read 520 nm against a blank; within the 20 seconds that followed the stabilization of the mixture. […] The concentration of creatinine was determined from the following equation: […]
# [3] = test system: lipid peroxidation induced in brain homogenates; assay: Inhibition of FeSO4-induced lipid peroxidation in brain homogenates; type: biochemical, Wistar rats
# Source text: I.2.3 Inhibitory Activity of Lipid Peroxide in Nitro (Prasanth et al., 2000)
# PRINCIPLE: Lipid peroxidation refers to the oxidative degradation of lipids which provoke a continuous increase in the permeability of cell membranes, inducing an irreversible alteration of the functional properties of the cell which could eventually lead to cytolysis. It is a radical chain reaction in which a free radical cleaves a hydrogen atom from membrane lipids in order to form a conjugated diene radical, which is oxidized to a peroxyl that in turn generates other radical reactions leading to the formation of terminal products such as MDA. Iron can stimulate lipid peroxidation either by Fenton reaction or by acceleration of peroxidation through the decomposition of lipid hydroperoxides into peroxyl or alkoxyl radicals; themselves capable of cleaving a hydrogen and perpetrating lipid peroxidation. The MDA from this reaction reacts with TBA to give pink colored chromophores which absorb at 532 nm. […]
# The lipid peroxidation test was conducted as follows: 300 μL of plant extract at different concentrations and distilled water (control) were added to 500 μL of each homogenate. […] The absorbance was read at 532 nm. […] The IC50 were determined by extrapolating after drawing curves of lipid peroxidation percentage inhibition against the concentrations of plant extracts.
# [4] = Ability to trap the hydroxyl radical (deoxyribose oxidation, Fenton reaction)
# Source text: I.2.3 Ability to Trap the Hydroxyl (^·OH) Radical (Halliwell et al., 1987)
# PRINCIPLE: The […] capacity of plant extracts to trap the hydroxyl radical is based on the Fenton reaction, by measuring the production of ·OH radical and its effect on the oxidation and degradation bio-molecules such as deoxyribose in DNA. The system in this technique involves an auto-oxidation of the Fe^2+-EDTA complex in an aqueous medium to form the superoxide (O2^−·) anion which is rapidly dismutated into H2O2 at a pH of 7.4. The latter then reacts with Fe^2+ form ^·OH radicals in the presence of ascorbic acid which acts as catalyst (Fenton reaction). […]
# PROTOCOL: The reaction mixture contained the following reagents: 0.4 mL of phosphate buffer (50 mmol/L, pH=7.4), 0.1 mL of different concentrations of the extract, 0.1 mL of EDTA (1.04 mmol/L), 0.1 mL of FeCl3 (1 mmol/L) and 0.1 mL 2-deoxyribose (60 mmol/L). the reaction was initiated by adding 0.1 mL of ascorbic acid (2 mmol/L) and 0.1 mL of H2O2 (10 mmol/L). after incubating for 1 hour at 37° C., 1 mL of TBA (10 g/L) were added into the reaction medium followed by 1 mL of HCl (25% v/v). […] The absorbance was then read at 532 nm. The capacity of extracts to trap the hydroxyl radical was expressed as percentage inhibition of the oxidation of 2-deoxyribose based on the following formula: […]
# [5] = test system: Aluminum chloride induced neurotoxicity in Wistar rats; assay: Aluminum chloride induced neurotoxicity in rats: thiol proteins in brain; type: in vivo; settings: brain of rats; AlCl3 32.5 mg/kg i.p.; Vit E 100 mg/kg BW/day (VE100)
# Method: as §1, §2
# Rats were divided into 5 groups of 4 rats each. […]
# (§4) PROTOCOL: The assay tubes contained 100 μL of homogenate or plasma or ovalbumin (caliber) and 3 mL of Biuret's reagent (annex 3c). […] The optical densities were read at 540 nm against a blank which contained 3 mL of reagent solution and 100 μL of NaCl 0.9% incubated under similar conditions. The total protein concentration was determined from the following equation: […]
# PROTOCOL: 100 μL of homogenate and 900 μL of Ellman's reagent (annex 3d) were added into the assay tubes, homogenized and incubated at room temperature for 30 minutes before reading the optical densities at 412 nm against a blank which contained 900 μL the reagent solution and 100 μL of NaCl 0.9% incubated under similar conditions as the assay. […] Results were expressed as μmol/g of total proteins.
# [6] = test system: Aluminum chloride induced neurotoxicity in Wistar rats; assay: Aluminum chloride treated rats: plasma transaminases ASAT (GOT) and ALAT (GPT), hepatic toxicity; type: in vivo
# Method: as §1, §2, §3
# 24 hours after the last administration, animals were sacrificed under mild anesthesia in Ether vapor following a 12 hours fasting. The rats' bloods were collected in EDTA tubes. Cervical dislocations were performed immediately after blood collections, to remove the brains which were then rinsed in physiologic solution (0.9% NaCl) and weighed. Plasmas were extracted from the bloods collected and the brains were used to prepare 10% homogenates which served for biochemical analysis.
# The blood in EDTA tubes were allowed to stand at room temperature, then centrifuged for 10 minutes at 900 revs/minute, the resulting liquid phase (plasma) was then collected into Eppendorf tubes and stored at −20° C.
# 1.3.3.3.1. Evaluation of the Activities of the Oxaloglutamate (GOT) and Glutamo-Pyruvate (GPT) Transaminases (Reitman et Franckel, 1957) (Hepatic Toxicity) […]
# PROTOCOL: EVALUATION DE L′ACTIVITÉ DE L′ASAT (GOT): 100 μL of substrate solution (annex 3e) were put into tubes, pre-incubated at 37° C. for 5 minutes then 0.02 mL of plasma was added. […] Optical densities were read at 505 nm against a blank (made up of 100 μL of substrate solution and 0.02 mL of NaCl 0.9%) titrated under similar conditions. […]
# [7] = test system: Aluminum chloride induced neurotoxicity in Wistar rats; assay: Aluminum chloride induced neurotoxicity in rats: MDA in brain; type: in vivo
# Method: as §1, §2
# (§5) Rats were divided into 5 groups of 4 rats each. A unique dose of 32.5 mg/kg BW of aluminum trichloride (AlCl3) was administered by intra peritoneal (i.p) route. […]
# PROTOCOL: 100 μL of homogenate and 400 μL of TBA reagent (annex 3b) were introduced into glass test tubes (blank and assay) which were tightly corked. […] The tubes were later opened for any gas to evaporate before centrifugation for 5 minutes at 1500 revs/minute and the absorbance of the liquid phase was read at 532 nm against a blank which contained 400 μL of reagent solution and 100 μL of NaCl 0.9% incubated in similar conditions. The concentration of MDA was determined using it molar extinction coefficient (ε=1.53×10^5 M^−1·cm^−1) and the following formula.
# [8] = test system: Aluminum chloride induced neurotoxicity in Wistar rats; assay: Aluminum chloride induced neurotoxicity in rats: catalase activity in brain; type: in vivo
# Method: as §1, §2, §5, §4
# PRINCIPLE: This method is based on the fact that the catalase present in hemolysates or homogenates reduces hydrogen peroxide (H2O2) to water (H2O) and oxygen (O2). […] Catalase activity is proportional to the optical density and is determined by use of a calibration curve. […]
# [9] = HEEBT 150 and 300 mg/kg BW, vitamin E
# [10] = plasma, AlCl3 32.5 mg/kg i.p., Vit E 100 mg/kg BW/day (VE100)
# [11] = HEEBT 150 and 300 mg/kg BW, vitamin E, p<0.05
compound,measurement,setting,value
"O=C1O[C@H]([C@@H](O)CO)C(O)=C1O [Vitamin C, ascorbic acid]",% inhibition of DPPH radical,[1],54%
Vitamin E,effect on plasma creatinine after aluminum,[2]; [9],tend to normalize
same,Créatinine,[2]; [10],2.297 ± 0.181 mg/dL
same,IC50 for lipid peroxidation induced in the brain,[3],0.574 mg/mL
same,percentage inhibition of lipid peroxidation in brain homogenates,[3]; 1000 m/mL,60.427%
same,IC50 ·OH scavenging activity,[4],25.3 mg/mL
same,Thiols proteins,[5],0.299 ± 0.071 μg/mg of proteins
same,effect on activities of plasma transaminases after aluminum,[6]; [9],tend to normalize
same,ALAT,[6]; [10],60.135 ± 7.453 unité d'ALAT/mL
same,ASAT,[6]; [10],76.363 ± 1.868 unité d'ASAT/mL
same,effect on MDA level in rats compared with the positive control (PC),[7]; [11],significantly (p<0.05) reduced
same,MDA,"[7]; brain of rats, AlCl3 32.5 mg/kg i.p., Vit E 100 mg/kg BW/day oral, 3 days (VE100)",4.631 ± 0.652 µM
same,effect on catalase activity compared with the PC group,[8]; [11],significantly (p<0.05) restore
same,Catalase,"[8]; brain of rats, AlCl3 32.5 mg/kg i.p., Vit E 100 mg/kg BW/day (VE100)",0.030 ± 0.003 mM H2O2/min/mg of proteins

# Reference: patent publication US11684646B2, “Methods and related compositions for reducing oxidative stress” (Gateway Health Alliances, Inc., priority 2019, dated 2023)
